Columns and labels:
CDK1 (cyclin B) = molecular target: T1, CDK1 (cyclin B) (Homo sapiens, UniProt P06493); assay: Z'-LYTE kinase inhibition IC50; assay type: biochemical; conditions: ATP 34 μM, 60 minutes at room temperature
T1 construct: purchased Invitrogen Life Technologies (assay run at the vendor)
Protocol: IC50 values of compounds against CDK1 (cyclin B) were determined by Z′-LYTE™. These screening assays were performed at Invitrogen Life Technologies (Grand Island, N.Y.) on a low volume NBS, black 384-well plate (#4514, Corning). 0.1 μL of 100× test compound in 100% DMSO (at specific solutions) was mixed with 2.4 μL of Kinase Buffer (50 mM HEPES pH 7.5, 0.01% BRIJ-35, 10 mM MgCl2, 1 mM EGTA), 5 μL of 2× Kinase (3.5-46.4 ng CDK1/cyclin B)/Peptide (2 μM Ser/Thr 18), and 2.5 μL of 4×ATP solution (34 μM). The plates were shaken for 30 seconds, and incubated for 60 minutes at room temperature. Development Reagent Solution (5 μL of 1:1024 dilution) was added to the plates followed with another 30-second plate shake, and the plates were further incubated at room temperature for one hour. The plates were read on fluorescence plate reader with Dual emission at 445 nm and 520 nm.
(§1) The following equations were used for Z′-LYTE™ Screening Assay Data Analysis. Percent inhibition (100-% activity) was fitted to the “four-parameter logistic model” in XLfit for determination of IC50 values.

CDK4 = molecular target: T2, CDK4 (Homo sapiens, UniProt P11802); assay: In vitro kinase inhibition IC50, luminescence (ADP Glo) with retinoblastoma as substrate; assay type: biochemical; conditions: ATP 25 μM, 2H at room temperature
T2 construct: purchased Invitrogen PR8064A
Protocol: (§2) IC50 values of compounds against CDK4 and CDK6 were determined by luminescence using retinoblastoma as substrate. Kinase assays were performed in kinase buffer (#PV6135, Invitrogen, Life Technologies Grand Island, N.Y.) where total reaction volume was 30 μL/well in 96-well half area white plates (#3693, Costar). One microliter of 25×test compounds at specific concentrations (e.g., final concentration range: 0.1 nM-200 nM) was mixed with 10 μL of 2.5×kinase (5 nM, CDK4 #PR8064A and CDK6 #PR8422B, Invitrogen) solution and 14 μL of 4× mixed solution with retinoblastoma (1 μM, #12-439, EMD Millipore, Hayward, Calif.) and ATP (25 μM, #V7038, Promega, Madison, Wis.). The plates were covered and incubated for 2H at room temperature. At the end of incubation, 25 μL of stop solution—ADP Glo reagent (#V7002, Promega) was added. After incubation for 45 min at room temperature, 50 μL of detection reagent (##V7002, Promega) was added. Readings were taken at 15 min and 45 min incubation after detection reagent was added in a Synergy Neo Plate reader (BioTek, Winooski, Vt.) at single excitation of 340 nm and Dual emission at 495 nm and 520 nm respectively. The following equations were used in the CDK4 and CDK6 assay data analysis. Percent inhibition (100-% activity) was fitted to the “four-parameter logistic model” in XLfit for determination of IC50 values.
(§3) Percent conversion of enzyme=100−{(RLUNo Drug−No enzyme*100)/RLUNo drug+Enzyme} Equation 1
(§4) Percent conversion at each data point=100−{(RLUAverage(Drug+enzyme)*100)/RLUNo drug+Enzyme} Equation 2
(§5) Percent Inhibition=100*(% Conversioneach data point/% ConversionEnzyme) Equation 3

CDK6 = molecular target: T3, CDK6 (Homo sapiens, UniProt Q00534); assay: as above; assay type: biochemical; conditions: ATP 25 μM, 2H at room temperature
T3 construct: purchased Invitrogen PR8422B
Protocol: as §2, §3, §4, §5

MCF-7 = assay: Cancer cell proliferation assay as a single agent (cell viability); assay type: cell-based; conditions: Homo sapiens, MCF7; MCF-7 breast adenocarcinoma, Rb Positive, 144H treatment
Protocol: (§6) The effects of test compounds were studied in two breast cancer cell lines of different subtype. The cancer cells (Table 3) were harvested during the logarithmic growth period and counted. Cell concentrations were adjusted to the appropriate number with respective medium and 90 μL cell suspensions were added to 96-well plates. After cells were seeded, the plates were shaken gently to distribute cells evenly and incubated at 37° C., 5% CO2 on day 1.
(§7) Cells were treated with test compounds at 7 to 9 concentrations within a desired concentration range (e.g. 1.1 nM-10 μM) on day 2 by series diluting the test compound stock solution (10 mM in DMSO) with culture medium. Treatment duration was 144H (with a medium change at 72H) for both MCF-7 and DU4475 cells. Cell viability was assessed by Cell Titer-Glo® as recommended by Promega (Cat. No.: G7572), or by resazurin assay (Sigma Aldrich, Cat. No.: R7017) post treatment.
(§8) Cell viability data were plotted using GraphPad Prism (GraphPad Software, Inc., San Diego, Calif.). In addition, a nonlinear regression model with a sigmoidal dose response and variable slope within GraphPad Prism was used to calculate the IC50 value of individual test compounds.

DU4475 = assay: as above; assay type: cell-based; conditions: Homo sapiens, DU-4475; DU4475 breast carcinoma, Rb Negative, 144H treatment
Protocol: as §6, §7, §8

CDK2 (cyclin A) = molecular target: T4, CDK2 (cyclin A) (Homo sapiens, UniProt P24941); assay: Z'-LYTE kinase inhibition IC50; assay type: biochemical; conditions: ATP 31 μM, 60 minutes at room temperature
T4 construct: purchased Invitrogen Life Technologies (assay run at the vendor)
Protocol: IC50 values of compounds against CDK2 (cyclin A) were determined by Z′-LYTE™. These screening assays were performed at Invitrogen Life Technologies (Grand Island, N.Y.) on a low volume NBS, black 384-well plate (#4514, Corning). 0.1 μL of 100× test compound in 100% DMSO (at specific solutions) was mixed with 2.4 μL of Kinase Buffer (50 mM HEPES pH 7.5, 0.01% BRIJ-35, 10 mM MgCl2, 1 mM EGTA), 5 μL of 2× Kinase (1.22-10.3 ng CDK2/cyclin A)/Peptide (2 μM Ser/Thr 12), and 2.5 μL of 4×ATP solution (31 μM). The plates were shaken for 30 seconds, and incubated for 60 minutes at room temperature. Development Reagent Solution (5 μL of 1:1024 dilution) was added to the plates followed with another 30-second plate shake and the plates were further incubated at room temperature for one hour. The plates were read on fluorescence plate reader with Dual emission at 445 nm and 520 nm.
as §1

T2 sequence (P11802 whole entry): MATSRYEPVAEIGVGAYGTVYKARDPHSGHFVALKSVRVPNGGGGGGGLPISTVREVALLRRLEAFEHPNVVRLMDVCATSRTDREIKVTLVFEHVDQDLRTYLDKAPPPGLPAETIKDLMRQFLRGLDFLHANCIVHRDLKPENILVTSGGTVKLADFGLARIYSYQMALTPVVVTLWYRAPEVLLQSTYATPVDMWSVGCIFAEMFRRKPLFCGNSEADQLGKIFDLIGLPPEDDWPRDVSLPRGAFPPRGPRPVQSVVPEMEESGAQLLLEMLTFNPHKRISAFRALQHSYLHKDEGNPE
T2 sequence (P24385 whole entry partner): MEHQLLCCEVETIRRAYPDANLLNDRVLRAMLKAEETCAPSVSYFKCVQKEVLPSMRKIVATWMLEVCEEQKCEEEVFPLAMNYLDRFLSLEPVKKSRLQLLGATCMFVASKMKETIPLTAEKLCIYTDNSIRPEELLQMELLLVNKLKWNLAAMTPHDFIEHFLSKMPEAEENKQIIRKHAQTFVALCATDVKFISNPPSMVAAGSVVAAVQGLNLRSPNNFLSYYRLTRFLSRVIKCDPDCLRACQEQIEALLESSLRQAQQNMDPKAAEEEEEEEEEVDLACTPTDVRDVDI
T3 sequence (Q00534 whole entry): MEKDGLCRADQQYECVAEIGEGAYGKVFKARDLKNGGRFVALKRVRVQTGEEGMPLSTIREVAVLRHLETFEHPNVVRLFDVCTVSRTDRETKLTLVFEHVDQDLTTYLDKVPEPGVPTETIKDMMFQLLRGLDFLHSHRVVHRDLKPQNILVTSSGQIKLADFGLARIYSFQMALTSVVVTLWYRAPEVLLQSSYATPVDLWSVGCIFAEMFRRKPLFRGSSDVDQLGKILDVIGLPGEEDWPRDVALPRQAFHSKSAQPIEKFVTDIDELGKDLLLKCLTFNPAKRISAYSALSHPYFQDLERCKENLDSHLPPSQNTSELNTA
T3 sequence (P24385 whole entry partner): as the sequence (P24385 whole entry partner) above
T1 sequence (P06493 whole entry): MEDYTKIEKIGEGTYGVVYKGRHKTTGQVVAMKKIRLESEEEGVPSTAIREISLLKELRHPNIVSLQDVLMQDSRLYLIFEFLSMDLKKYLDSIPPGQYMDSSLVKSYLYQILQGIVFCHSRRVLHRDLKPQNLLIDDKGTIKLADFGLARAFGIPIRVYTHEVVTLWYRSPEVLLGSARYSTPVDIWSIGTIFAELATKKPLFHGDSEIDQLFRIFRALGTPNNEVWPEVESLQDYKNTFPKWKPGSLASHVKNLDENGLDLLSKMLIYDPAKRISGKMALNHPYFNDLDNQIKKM
T1 sequence (P14635 whole entry partner): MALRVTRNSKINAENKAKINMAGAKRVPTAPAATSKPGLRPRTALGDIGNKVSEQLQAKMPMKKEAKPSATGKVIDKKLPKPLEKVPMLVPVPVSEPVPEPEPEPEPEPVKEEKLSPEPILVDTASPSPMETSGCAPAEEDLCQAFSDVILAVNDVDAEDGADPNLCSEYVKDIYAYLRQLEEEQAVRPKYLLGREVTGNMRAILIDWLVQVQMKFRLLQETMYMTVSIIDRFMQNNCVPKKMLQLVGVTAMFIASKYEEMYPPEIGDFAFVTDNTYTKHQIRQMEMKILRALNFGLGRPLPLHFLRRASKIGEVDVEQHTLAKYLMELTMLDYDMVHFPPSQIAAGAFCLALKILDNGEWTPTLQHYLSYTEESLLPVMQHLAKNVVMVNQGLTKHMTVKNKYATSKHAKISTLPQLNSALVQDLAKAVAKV

SMILES	IC50 (CDK1 (cyclin B)) [nM]	IC50 (CDK4) [nM]	IC50 (CDK6) [nM]	IC50 (MCF-7) [nM]	IC50 (DU4475) [nM]	IC50 (CDK2 (cyclin A)) [nM]
CC(C)N1CCOc2c(F)cc(-c3nc(Nc4ccc5[nH]nc(C6CCNCC6)c5c4)ncc3F)cc21 [Compound 59, N-(5-fluoro-4-(8-fluoro-4-isopropyl-3,4-dihydro-2H-benzo[b][1,4]oxazin-6-yl)pyrimidin-2-yl)-3-(piperidin-4-yl)-1H-indazol-5-amine]	7	15	24	3440	1490	15
CC(C)N1CCOc2c(F)cc(-c3nc(Nc4nc5cc(C6=CCNCC6)ccc5s4)ncc3F)cc21 [Compound 120, N-(5-fluoro-4-(8-fluoro-4-isopropyl-3,4-dihydro-2H-benzo[b][1,4]oxazin-6-yl)pyrimidin-2-yl)-5-(1,2,3,6-tetrahydropyridin-4-yl)benzo[d]thiazol-2-amine]	–	> 190	> 200	80	130	–
